What was measured:
EHMT2 = target: T1, EHMT2 (Homo sapiens, UniProt Q96KQ7); assay: MDA-MB-231 H3K9me2 in-cell Western assay (EHMT2 ICW); assay type: cell-based; conditions: Table III; MDA-MB-231 H3K9me2 in-cell Western; read-out: EHMT2 ICW (IC50 μM)
T1 construct: host or cells: MDA-MB-231
T1 sequence (Q96KQ7 1-1210): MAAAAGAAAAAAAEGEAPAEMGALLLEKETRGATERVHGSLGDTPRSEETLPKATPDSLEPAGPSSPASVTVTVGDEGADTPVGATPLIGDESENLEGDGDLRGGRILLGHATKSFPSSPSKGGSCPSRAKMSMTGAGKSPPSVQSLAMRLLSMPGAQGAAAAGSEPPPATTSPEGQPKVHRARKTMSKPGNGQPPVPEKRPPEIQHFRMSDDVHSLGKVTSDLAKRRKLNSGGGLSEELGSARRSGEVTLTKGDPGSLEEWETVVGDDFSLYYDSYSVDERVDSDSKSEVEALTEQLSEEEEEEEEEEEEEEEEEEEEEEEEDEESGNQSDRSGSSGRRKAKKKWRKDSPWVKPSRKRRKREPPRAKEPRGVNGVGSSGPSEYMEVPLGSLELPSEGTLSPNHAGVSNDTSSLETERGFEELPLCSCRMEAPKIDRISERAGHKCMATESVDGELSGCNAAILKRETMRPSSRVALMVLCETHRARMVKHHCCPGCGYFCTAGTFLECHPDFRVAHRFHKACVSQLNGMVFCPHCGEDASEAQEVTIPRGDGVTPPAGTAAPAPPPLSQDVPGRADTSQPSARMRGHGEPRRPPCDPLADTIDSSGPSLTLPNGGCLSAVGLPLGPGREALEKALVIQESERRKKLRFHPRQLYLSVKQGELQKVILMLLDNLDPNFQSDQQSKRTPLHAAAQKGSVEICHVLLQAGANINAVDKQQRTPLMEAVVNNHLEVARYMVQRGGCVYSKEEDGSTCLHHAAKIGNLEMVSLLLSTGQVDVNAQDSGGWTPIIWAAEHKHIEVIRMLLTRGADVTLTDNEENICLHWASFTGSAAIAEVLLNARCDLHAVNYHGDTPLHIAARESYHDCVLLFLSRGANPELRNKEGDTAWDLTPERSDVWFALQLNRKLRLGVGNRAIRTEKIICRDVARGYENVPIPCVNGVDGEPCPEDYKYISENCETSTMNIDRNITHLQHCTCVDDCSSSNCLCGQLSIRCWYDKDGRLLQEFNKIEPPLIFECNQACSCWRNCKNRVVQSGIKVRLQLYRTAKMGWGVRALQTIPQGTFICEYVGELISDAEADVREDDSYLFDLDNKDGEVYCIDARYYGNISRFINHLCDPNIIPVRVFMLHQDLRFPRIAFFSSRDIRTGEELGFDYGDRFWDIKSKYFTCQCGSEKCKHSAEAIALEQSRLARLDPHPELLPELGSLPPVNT
From the text: RPMI/Glutamax medium, Penicillin-Streptomycin, Heat Inactivated Fetal Bovine Serum, and D-PBS were purchased from Life Technologies (Grand Island, N.Y., USA). Odyssey blocking buffer, 800CW goat anti-mouse IgG (H+L) antibody, and Licor Odyssey Infrared Scanner were purchased from Licor Biosciences, Lincoln, Nebr., USA. […] 16% Paraformaldehyde was purchased from Electron Microscopy Sciences, Hatfield, Pa., USA).MDA-MB-231 cells were maintained in complete growth medium (RPMI supplemented with 10% v/v heat inactivated fetal bovine serum) and cultured at 37° C. under 5% CO2. UNC0638 was purchased from Sigma-Aldrich (St. Louis, Mo., USA).
Compound (100 nL) was added directly to 384-well cell plate. MDA-MB-231 cells (ATCC) were seeded in assay medium (RPMI/Glutamax supplemented with 10% v/v heat inactivated fetal bovine serum and 1% Penicillin/Streptomycin, Life Technologies) at a concentration of 3,000 cells per well to a Poly-D-Lysine coated 384-well cell culture plate with 50 μL per well. […] Plates were incubated at room temperature for 30 minutes and then incubated at 37° C., 5% CO2 for additional 48 hours. After the incubation, 50 μL per well of 8% paraformaldehyde (Electron Microscopy Sciences) in PBS was added to the plates and incubated at room temperature for 20 minutes. […] Next, 60 μL per well of Odyssey blocking buffer (Licor Biosciences) was added to each plate and incubated for 1 hour at room temperature. Blocking buffer was removed and 20 μL of monoclonal primary antibody α-H3K9me2 (Abcam) diluted 1:800 in Odyssey buffer with 0.1% Tween 20 (v/v) were added and plates were incubated overnight (16 hours) at 4° C. Plates were washed 5 times with 100 μL per well of wash buffer. Next 20 μL per well of secondary antibody was added (1:500 800CW donkey anti-mouse IgG (H+L) antibody (Licor Biosciences), 1:1000 DRAQ5 (Cell Signaling Technology) in Odyssey buffer with 0.1% Tween 20 (v/v)) and incubated for 1 hour at room temperature. The plates were washed 5 times with 100 μL per well wash buffer then 2 times with 100 μL per well of water. Plates were allowed to dry at room temperature then imaged on a Licor Odyssey Infrared Scanner (Licor Biosciences) which measured integrated intensity at 700 nm and 800 nm wavelengths. Both 700 and 800 channels were scanned.
First, the ratio for each well was determined by:
The average of the ratio values for each well was calculated and used to determine the percent inhibition for each test well in the plate. Control compound was serially diluted three-fold in DMSO for a total of 10 test concentrations beginning at 1 μM. Percent inhibition was calculated as: […]
IC50 curves were generated using triplicate wells per concentration of compound. […] IC50 values were calculated using a non-linear regression (variable slope-four parameter fit model) with by the following formula: […]

human EHMT2 913-1193 = target: T2, human EHMT2 913-1193 (Homo sapiens, UniProt Q96KQ7); assay: EHMT2 enzyme assay on histone peptide substrate (EHMT2 PEP); assay type: biochemical; conditions: Table III; read-out: EHMT2 PEP (IC50 μM)
T2 construct: recombinant purified human EHMT2 913-1193, Viva; purchased Viva
T2 sequence (Q96KQ7 913-1193): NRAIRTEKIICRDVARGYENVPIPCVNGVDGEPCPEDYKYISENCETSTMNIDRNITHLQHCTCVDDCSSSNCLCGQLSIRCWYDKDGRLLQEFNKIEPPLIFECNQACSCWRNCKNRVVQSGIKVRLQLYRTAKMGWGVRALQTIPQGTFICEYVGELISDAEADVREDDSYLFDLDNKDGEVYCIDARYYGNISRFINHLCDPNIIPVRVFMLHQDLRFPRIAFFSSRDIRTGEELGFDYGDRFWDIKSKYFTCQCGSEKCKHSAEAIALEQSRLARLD
Procedure: Recombinant purified human EHMT2 913-1193 (55 μM) synthesized by Viva was used for all experiments. Biotinylated histone peptides were synthesized by Biopeptide and HPLC-purified to >95% purity. Streptavidin Flashplates and seals were purchased from PerkinElmer and 384 Well V-bottom Polypropylene Plates were from Greiner. ^3H-labeled S-adenosylmethionine (^3H-SAM) was obtained from American Radiolabeled Chemicals with a specific activity of 80 Ci/mmol. Unlabeled SAM and S-adenosylhomocysteine (SAH) were obtained from American Radiolabeled Chemicals and Sigma-Aldrich respectively. Flashplates were washed in a Biotek ELx-405 with 0.1% Tween. 384-well Flashplates and 96-well filter binding plates were read on a TopCount microplate reader (PerkinElmer). Compound serial dilutions were performed on a Freedom EVO (Tecan) and spotted into assay plates using a Thermo Scientific Matrix PlateMate (Thermo Scientific). Reagent cocktails were added by Multidrop Combi (Thermo Scientific).
General Procedure for EHMT2 Enzyme Assay on Histone Peptide Substrate.
10-point curves of test compounds were made on a Freedom EVO (Tecan) using serial 3-fold dilutions in DMSO, beginning at 2.5 mM (final top concentration of compound was 50 μM and the DMSO was 2%). A 1 μL aliquot of the inhibitor dilution series was spotted in a polypropylene 384-well V-bottom plate (Greiner) using a Thermo Scientific Matrix PlateMate (Thermo Scientific). […] Compounds were incubated for 30 minutes with 40 μL per well of 0.031 nM EHMT2 (recombinant purified human EHMT2 913-1193, Viva) in 1× assay buffer (20 mM Bicine [pH 7.5], 0.002% Tween 20, 0.005% Bovine Skin Gelatin and 1 mM TCEP). […] Reactions were incubated for 60 minutes at room temperature and quenched with 10 μL per well of 400 μM unlabeled SAM, then transferred to a 384-well streptavidin Flashplate (PerkinElmer) and washed in a Biotek ELx-405 well washer with 0.1% Tween after 60 minutes. 384-well Flashplates were read on a TopCount microplate reader (PerkinElmer).

IC50 (EHMT2) [µM] | IC50 (human EHMT2 913-1193) [µM] | SMILES
0.1 to 1 | < 0.1 | CNc1ccnc(Nc2ccc(OC)c(OCCCN3CCC3)c2)n1 [Compound 281]
0.1 to 1 | – | CNc1ccnc(Nc2ccc(OC)c(OCCCN3CCCC3)c2)n1 [Compound 399]
